From PubChem BioAssay AID248 (DTP/NCI, 2004)
Toxic doses and inconclusive results are not listed. No stated cut-off is given here; in the data, active means T/C of 150% or more; inactive means T/C below 125%. Peptide text beside a SMILES is read from it.

Tested on: L1210 leukemia ip in BDF1 mice, survival T/C
Assay: NCI In Vivo Anticancer Drug Screen. Data for tumor model L1210 Leukemia (intraperitoneal) in B6D2F1 (BDF1) mice
Details: higher = longer survival
How it was run: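 Mice bearing the transplanted tumor received compound or vehicle. Survival of the treated group was divided by that of the vehicle-treated control group to give the ratio.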

[1] = endpoint: mean survival time, dose: 100.0 mg/kg/injection, schedule: Q01DX001 (ip), vehicle: saline
[2] = endpoint: mean survival time, dose: 200.0 mg/kg/injection, schedule: Q01DX001 (ip), vehicle: saline
[3] = endpoint: mean survival time, dose: 400.0 mg/kg/injection, schedule: Q01DX001 (ip), vehicle: saline
[4] = endpoint: mean survival time, dose: 50.0 mg/kg/injection, schedule: Q01DX001 (ip), vehicle: carboxymethylcellulose (CMC)
[5] = endpoint: mean survival time, dose: 100.0 mg/kg/injection, schedule: Q01DX001 (ip), vehicle: carboxymethylcellulose (CMC)
[6] = endpoint: mean survival time, dose: 200.0 mg/kg/injection, schedule: Q01DX001 (ip), vehicle: carboxymethylcellulose (CMC)
[7] = endpoint: mean survival time, dose: 400.0 mg/kg/injection, schedule: Q01DX001 (ip), vehicle: carboxymethylcellulose (CMC)
[8] = endpoint: mean survival time, dose: 100.0 mg/kg/injection, schedule: Q01DX009 (ip), vehicle: saline with Tween-80
[9] = endpoint: mean survival time, dose: 100.0 mg/kg/injection, schedule: Q04DX003 (ip), vehicle: saline with Tween-80
[10] = endpoint: mean survival time, dose: 200.0 mg/kg/injection, schedule: Q01DX009 (ip), vehicle: saline with Tween-80
[11] = endpoint: mean survival time, dose: 200.0 mg/kg/injection, schedule: Q04DX003 (ip), vehicle: saline with Tween-80
[12] = endpoint: mean survival time, dose: 100.0 mg/kg/injection, schedule: Q04DX002 (ip), vehicle: saline with Tween-80
[13] = endpoint: mean survival time, dose: 200.0 mg/kg/injection, schedule: Q04DX002 (ip), vehicle: saline with Tween-80
[14] = endpoint: mean survival time, dose: 400.0 mg/kg/injection, schedule: Q01DX009 (ip), vehicle: saline with Tween-80
[15] = endpoint: mean survival time, dose: 400.0 mg/kg/injection, schedule: Q04DX002 (ip), vehicle: saline with Tween-80
[16] = endpoint: mean survival time, dose: 100.0 mg/kg/injection, schedule: Q01DX009 (ip), vehicle: Klucel (hydroxypropylcellulose) (HPC)
[17] = endpoint: mean survival time, dose: 200.0 mg/kg/injection, schedule: Q01DX009 (ip), vehicle: Klucel (hydroxypropylcellulose) (HPC)
[18] = endpoint: mean survival time, dose: 400.0 mg/kg/injection, schedule: Q01DX009 (ip), vehicle: Klucel (hydroxypropylcellulose) (HPC)

Measured: T/C

CCCCCCCCCCCCCCCCSCCCCCCCCCCCSCCCCCCCCCCCCCCCC
inactive: endpoint: mean survival time, dose: 100.0 mg/kg/injection, schedule: Q01DX001 (ip), vehicle: Klucel (hydroxypropylcellulose) (HPC) 89 % of control | endpoint: mean survival time, dose: 200.0 mg/kg/injection, schedule: Q01DX001 (ip), vehicle: Klucel (hydroxypropylcellulose) (HPC) 94 % of control | endpoint: mean survival time, dose: 400.0 mg/kg/injection, schedule: Q01DX001 (ip), vehicle: Klucel (hydroxypropylcellulose) (HPC) 102 % of control

CN(CCCCC(=O)NC(CCC(=O)O)C(=O)O)Cc1cnc2nc(N)nc(N)c2n1 (configuration not stated)
inactive: endpoint: mean survival time, dose: 20.0 mg/kg/injection, schedule: Q01DX009 (ip), vehicle: saline 94 % of control | endpoint: mean survival time, dose: 40.0 mg/kg/injection, schedule: Q01DX009 (ip), vehicle: saline 112 % of control | endpoint: mean survival time, dose: 80.0 mg/kg/injection, schedule: Q01DX009 (ip), vehicle: saline 94 % of control

O=C(NC1CCC(C(=O)O)CC1)OCc1ccccc1 (configuration not stated)
inactive: [1] 98 % of control | endpoint: mean survival time, dose: 100.0 mg/kg/injection, schedule: Q01DX009 (ip), vehicle: saline 109 % of control | endpoint: mean survival time, dose: 100.0 mg/kg/injection, schedule: Q04DX003 (ip), vehicle: acetone 96 % of control | [2] 102 % of control | endpoint: mean survival time, dose: 200.0 mg/kg/injection, schedule: Q01DX009 (ip), vehicle: saline 100 % of control | endpoint: mean survival time, dose: 200.0 mg/kg/injection, schedule: Q04DX003 (ip), vehicle: acetone 102 % of control | [3] 98 % of control | endpoint: mean survival time, dose: 400.0 mg/kg/injection, schedule: Q01DX009 (ip), vehicle: saline 105 % of control | endpoint: mean survival time, dose: 400.0 mg/kg/injection, schedule: Q04DX003 (ip), vehicle: acetone 98 % of control

CNC(=S)N/N=C/C(CO)=N\NC(=S)NC
inactive: [4] 101 % of control | [5] 103 % of control | [6] 112 % of control | [7] 97 % of control

C=CCOc1ccccn1
inactive: endpoint: mean survival time, dose: 50.0 mg/kg/injection, schedule: Q01DX009 (ip), vehicle: saline with Tween-80 98 % of control | endpoint: mean survival time, dose: 50.0 mg/kg/injection, schedule: Q04DX003 (ip), vehicle: saline with Tween-80 105 % of control | [8] 104 % of control | [9] 98 % of control | [10] 98 % of control | [11] 102 % of control

CC/C=C(\CCC)C1(CC)C(=O)NC(=O)NC1=O
inactive: endpoint: mean survival time, dose: 75.0 mg/kg/injection, schedule: Q01DX001 (ip), vehicle: saline 94 % of control | endpoint: mean survival time, dose: 150.0 mg/kg/injection, schedule: Q01DX001 (ip), vehicle: saline 105 % of control

CCOC(=O)c1c[nH]c2cc(OC)ccc2c1=O
inactive: [8] 92 % of control | [10] 93 % of control

C=COC(=O)c1ccccc1
inactive: [8] 98 % of control | [12] 93 % of control | [10] 98 % of control | [13] 93 % of control | [14] 95 % of control | [15] 93 % of control

COc1ccc(C(=O)C(C)C(O)C(=O)O)c(O)c1C (configuration not stated)
inactive: [8] 96 % of control | endpoint: mean survival time, dose: 100.0 mg/kg/injection, schedule: Q04DX003 (ip), vehicle: saline 97 % of control | [10] 100 % of control | endpoint: mean survival time, dose: 200.0 mg/kg/injection, schedule: Q04DX003 (ip), vehicle: saline 94 % of control | [14] 102 % of control | endpoint: mean survival time, dose: 400.0 mg/kg/injection, schedule: Q04DX003 (ip), vehicle: saline 98 % of control

Cc1cc(Br)cc(C(=O)Cl)c1O
inactive: [12] 92 % of control | [13] 96 % of control | [15] 100 % of control

CN(C)CCCN=C=NC1CCCCC1
inactive: endpoint: mean survival time, dose: 100.0 mg/kg/injection, schedule: Q04DX003 (ip), vehicle: Klucel (hydroxypropylcellulose) (HPC) 98 % of control | endpoint: mean survival time, dose: 200.0 mg/kg/injection, schedule: Q04DX003 (ip), vehicle: Klucel (hydroxypropylcellulose) (HPC) 95 % of control

CN(C)C(=S)N=Nc1c(O)[nH]c2ccccc12
inactive: endpoint: mean survival time, dose: 75.0 mg/kg/injection, schedule: Q01DX001 (ip), vehicle: other 103 % of control | endpoint: mean survival time, dose: 150.0 mg/kg/injection, schedule: Q01DX001 (ip), vehicle: other 96 % of control | endpoint: mean survival time, dose: 300.0 mg/kg/injection, schedule: Q01DX001 (ip), vehicle: other 105 % of control

NC(CCC(=O)O)C(=O)NC(CO)C(=O)O (stereo not drawn) (H-Glu-Ser-OH; configuration not given here)
inactive: endpoint: mean survival time, dose: 100.0 mg/kg/injection, schedule: Q01DX001 (ip), vehicle: saline with Tween-80 92 % of control | endpoint: mean survival time, dose: 200.0 mg/kg/injection, schedule: Q01DX001 (ip), vehicle: saline with Tween-80 89 % of control

CNC(=O)Nc1ccc(C(=O)OCC(C)C)cc1
inactive: [16] 104 % of control | [17] 115 % of control | [18] 104 % of control

Oc1ccc(Cl)cc1/C=N/Nc1nnc(N/N=C/c2cc(Cl)ccc2O)c2ccccc12
inactive: [4] 90 % of control | [5] 93 % of control | [6] 95 % of control | [7] 95 % of control

ClC1(Cl)C2CCC3C(CCC21)C3(Cl)Cl (configuration not stated)
inactive: [16] 100 % of control | [17] 107 % of control | [18] 107 % of control

CCCCCCCCC(S(=O)(=O)CC)S(=O)(=O)CC
inactive: [1] 97 % of control | [2] 94 % of control | [3] 92 % of control

CCOC(=O)c1nc(N)n[nH]1
inactive: [9] 106 % of control | [11] 104 % of control | endpoint: mean survival time, dose: 400.0 mg/kg/injection, schedule: Q04DX003 (ip), vehicle: saline with Tween-80 101 % of control

Nc1nc(N)c2cc(S(=O)(=O)c3ccccc3)ccc2n1
inactive: endpoint: median survival time, dose: 25.0 mg/kg/injection, schedule: Q01DX009 (ip), vehicle: saline with Tween-80 110 % of control | endpoint: median survival time, dose: 400.0 mg/kg/injection, schedule: Q01DX009 (ip), vehicle: saline with Tween-80 108 % of control | endpoint: median survival time, dose: 800.0 mg/kg/injection, schedule: Q01DX009 (ip), vehicle: saline with Tween-80 117 % of control

CCN(CC)CC(O)c1ccnc2c(N)cc(OC)cc12 (configuration not stated)
inactive: endpoint: mean survival time, dose: 75.0 mg/kg/injection, schedule: Q01DX001 (ip), vehicle: acetone 104 % of control | endpoint: mean survival time, dose: 150.0 mg/kg/injection, schedule: Q01DX001 (ip), vehicle: acetone 101 % of control
